Measurements from patent publication US10519247B2, “Targeting HER2 and HER3 with bispecific antibodies in cancerous cells” (Board of Regents, The University of Texas System, priority 2013, dated 2019).

Key:
Assay type in all cases: cell-based, human
SK-BR-3 cells [1] = assay: Proliferation assay (MTS), SK-BR-3; conditions: 5 days
Description: (§1) Cells were plated in 96 well plates at a density of 2,500 cells per well and incubated overnight. […] Antibodies were used at a concentration of 50 nM unless otherwise indicated. Dimethyl sulfoxide or phosphate buffered saline (PBS) were used as vehicle controls for lapatinib or HRG-β1/antibodies, respectively. After 5 days of incubation in a 37° C. 5% CO2 incubator, cell proliferation was quantitated using CellTiter 96 AQeous One Solution Proliferation Assay kit (Promega, catalog no. G3580) according to the manufacturer's instructions.

BT-474 cells [2] = assay: Proliferation assay (MTS), BT-474; conditions: 5 days
Description: as §1

SK-BR-3 cells [3] = assay: Immunoblotting of cell lysates, SK-BR-3
Description: (§2) Cells cultured to near confluence in 6 well plates were treated with lapatinib, HRG-β1 or antibodies as for proliferation assays. Following one or 24 hours incubation, cells were lysed using RIPA buffer (50 mM Tris, 150 mM NaCl, 0.5% sodium deoxycholate, 1% Triton X-100, 0.1% sodium dodecyl sulfate, 2 ug/mL aprotinin, 2 ug/mL leupeptin, 1 ug/mL pepstatin A, and 0.4 mg/mL pefabloc SC PLUS). Lysates were centrifuged for 20 minutes at 14,600 rpm at 4° C. and supernatants were collected. Protein concentrations in each lysate were determined using the BCA protein assay reagent (Pierce, catalog no. 23223). Total lysates were fractionated by SDS-PAGE and transferred onto polyvinylidene difluoride (PVDF) membranes (Millipore, catalog no. IPVH00010) or nitrocellulose membranes (Bio-Rad, catalog no 162.0145). Membranes were incubated with 5% bovine serum albumin in Tris-buffered saline with 0.1% Tween (TBST, pH 8.0) for 1 hour following transfer to block non-specific binding sites. Blocked membranes were incubated with primary antibodies overnight at 4° C. with agitation. Prior to incubation with the secondary antibodies conjugated to horseradish peroxidase, blots were washed three times (10 minutes/wash) with TB ST. Following incubation with secondary antibodies for 1 hour and washing, bound secondary antibody was detected using chemiluminescent detection regent (GE Healthcare, catalog no. RPN 2209/AF).

BT-474 cells [4] = assay: Immunoblotting of cell lysates, BT-474
Description: as §2

SK-BR-3 cells [5] = assay: Flow cytometry of cell surface HER2 and HER3, SK-BR-3; conditions: 1 μM lapatinib, 24 hours
Description: (§3) Cells were treated with 1 μM lapatinib (Lap), medium (Med) or vehicle control (DMSO) for 24 hours.
(§4) The methodology used to determine HER2 and HER3 levels by flowcytometry is as follows, unless otherwise indicated. Antibodies were labeled with either Alexa Fluor® 647 carboxylic acid, succinimidyl ester (Life Technologies, Catalog # A-20173) or Alexa Fluor® 488 carboxylic acid, succinimidyl ester (Life Technologies, Catalog # A-10235) using methods recommended by the manufacturer. Following the labeling reaction, antibodies were extensively dialyzed against PBS to remove unincorporated Alexa dye. Cells were seeded at a density of 100,000 cells per well in 24 well plates, incubated overnight, and subsequently treated with either 1 μM lapatinib or vehicle control (DMSO) for 24 hours at 37° C. in a CO2 incubator. […] Following incubation, cells were trypsinized, washed, and suspended in PBS. Stained cells were analyzed using a BD FACScalibur and data processed using FlowJo (Tree Star).

BT-474 cells [6] = assay: Flow cytometry of cell surface HER2 and HER3, BT-474; conditions: 1 μM lapatinib, 24 hours
Description: as §3, §4

HCC1419 cells = assay: Proliferation assay (MTS), HCC1419; conditions: 5 days
Description: as §1

SK-BR-3 cells [7] = assay: Fluorescence microscopy of intracellular trafficking; conditions: 50 nM
Text: The combined pulse plus chase times are indicated on the left margin. Anti-HER3 or HER2/HER3 antibodies were detected with Alexa 555-labeled secondary antibody (pseudocolored red in overlay) and anti-EEA-1 antibody with Alexa 647-labeled secondary antibody (pseudocolored green in overlay). […] Scale bars=2 μm.
Cells were fixed, permeabilized and stained for LAMP-1. Anti-HER3 or HER2/HER3 antibodies were detected with Alexa 555-labeled secondary antibody (pseudocolored red in overlay) and anti-LAMP-1 antibody with Alexa 488-labeled secondary antibody (pseudocolored green in overlay). […] Scale bars=2 μm.
For fixation, cells were treated with 1.7% (w/v) paraformaldehyde for 10 minutes at 37° C. and then permeabilized with 0.05% (v/v) saponin for 10 minutes at room temperature in PBS. […] After blocking for 30 minutes with goat serum (Sigma-Aldrich, catalog no. G6767), bound primary antibodies were detected by incubating cells with the following secondary antibody conjugates for 25 minutes at room temperature: Alexa 555-labeled goat anti-human IgG (H+L) (Life Technologies, catalog no. A21433), Alexa 647-labeled goat anti-mouse IgG (H+L) (Life Technologies, catalog no. A21236) and Alexa 488-labeled goat anti-rabbit IgG (H+L) (Life Technologies, catalog no. A11034). […]

[8] = lapatinib 50 nM-1 μM, no heregulin
[9] = 1 μM lapatinib + heregulin 6.25 nM
[10] = 50 nM antibody + heregulin 6.25 nM
[11] = 50 nM antibody + 1 μM lapatinib + heregulin 6.25 nM
[12] = 50 nM antibody, no heregulin, no lapatinib
[13] = 50 nM antibody, one hour, versus trastuzumab, pertuzumab, TAb6 or PAb6, not sustained at 24 hours

Molecule: CS(=O)(=O)CCNCc1ccc(-c2ccc3ncnc(Nc4ccc(OCc5cccc(F)c5)c(Cl)c4)c3c2)o1 [lapatinib, reference compound]
- proliferation, lapatinib alone (SK-BR-3 cells [1]; [8]): inhibition of proliferation
- proliferation, lapatinib plus heregulin (SK-BR-3 cells [1]; lapatinib + heregulin 6.25 nM): growth inhibition was ablated
- proliferation, lapatinib alone (BT-474 cells [2]; [8]): inhibition of proliferation
- proliferation, lapatinib plus heregulin (BT-474 cells [2]; lapatinib + heregulin 6.25 nM): growth inhibition was ablated
- inhibition of HER3, Akt and Erk phosphorylation, lapatinib plus heregulin (SK-BR-3 cells [3]; [9]): partially reversed
- HER3, Akt and Erk phosphorylation, lapatinib alone (SK-BR-3 cells [3]; 1 μM lapatinib, 1 or 24 hours): potent inhibition
- inhibition of HER3, Akt and Erk phosphorylation, lapatinib plus heregulin (BT-474 cells [4]; [9]): partially reversed
- HER3, Akt and Erk phosphorylation, lapatinib alone (BT-474 cells [4]; 1 μM lapatinib, 1 or 24 hours): potent inhibition
- HER2 levels on the plasma membrane (SK-BR-3 cells [5]): upregulation
- HER3 levels on the plasma membrane (SK-BR-3 cells [5]): upregulation
- HER2 levels on the plasma membrane (BT-474 cells [6]): not upregulated
- HER3 levels on the plasma membrane (BT-474 cells [6]): upregulation

Molecule: heregulin [reference compound]
- proliferation in the presence of heregulin alone (SK-BR-3 cells [1]; [10]): reduced proliferation
- proliferation in the presence of heregulin alone (BT-474 cells [2]; heregulin 6.25 nM): trend towards heregulin-stimulated proliferation
- proliferation in the presence of heregulin alone (HCC1419 cells; heregulin 6.25 nM): increased proliferation

B1: Ab6: bivalent anti-HER3 antibody which competes with heregulin for binding to HER3 (antibody, V domains shown)
VH: QVQLLESGGGLVQPGGSLRLSCAASGFTFSHYVMAWVRQAPGKGLEWVSSISSSGGWTLYADSVKGRFTISRDNSKNTLYLQMNSLRAEDTAVYYCTRGLKMATIFDYWGQGTLVTVSS
VL: DIQLTQPASVSGSPGQSITISCTGTSSDVGSYNVVSWYQQHPGKAPKLIIYEVSQRPSGVSNRFSGSKSGNTASLTISGLQTEDEADYYCCSYAGSSIFVIFGGGTKVTVL
- proliferation in the presence of heregulin and lapatinib (SK-BR-3 cells [1]; [11]): anti-proliferative effects
- proliferation (SK-BR-3 cells [1]; [12]): reduced proliferation
- proliferation in the presence of heregulin and lapatinib (BT-474 cells [2]; [11]): anti-proliferative effects
- proliferation in the presence of heregulin (BT-474 cells [2]; [10]): ablated the inhibitory effects
- proliferation (BT-474 cells [2]; [12]): the effects were not significant
- proliferation in the presence of heregulin and lapatinib (HCC1419 cells; [11]): anti-proliferative effects
- proliferation in the presence of heregulin (HCC1419 cells; [10]): ablated the inhibitory effects
- proliferation (HCC1419 cells; [12]): reduced proliferation
- pAkt levels in the presence of heregulin (SK-BR-3 cells [3]; 50 nM antibody + heregulin 6.25 nM, 24 hours): a reduction
- pErk levels at one hour (SK-BR-3 cells [3]; [13]): lower
- pErk levels at one hour (BT-474 cells [4]; [13]): lower
- localization following 15 minutes of treatment (SK-BR-3 cells [7]): internalized into early endosomes
- localization within one hour of treatment (SK-BR-3 cells [7]; 15 minutes pulse, 45 minutes chase): present in LAMP-1+ lysosomes
